Assay results as given in patent US12180252B2, “Peptide derived from PEP27 peptide and uses thereof” (priority 2021, dated 2024).
In brackets after ≈: the same amount, converted by molar mass. Where two headings read alike, the source gives them in different places. Where a SMILES comes first, the peptide text is derived from it.

Assays:
[1] = tested on: S. aureus ATCC25923; experiment: microbe, parasite or virus in culture; conditions: ATCC25923, 18 h; for MIC: Staphylococcus aureus, read-out: Minimal inhibitory concentration
Procedure: (§1) In order to evaluate the antimicrobial activity of the peptides prepared by the method of above 1, a minimal inhibitory concentration (MIC) value as the minimum concentration of a peptide, in which cells are not divided, was measured.
(§2) Specifically, the strains shown in Table 3 below were purchased, cultured in a medium having a constitutional composition suitable for each strain to a mid-log phase, and then diluted to a concentration of 2×10^4 cells/100 μl to prepare the product on a micro-titration plate (Nunc, USA). Then, PEP27, PEP27-1, PEP27-2 or PEP27-5 peptide synthesized in the above 1 was added to each well by serial dilution ½ times, followed by incubation at 37° C. for 18 hours.
(§3) Specifically, subject strains were prepared by the method of above 2, and were treated with the antibiotics, that is, meropenem, ceftazidime, ceftriaxone or vancomycin, respectively, followed by determining MICs of the antibiotics.

[2] = tested on: S. aureus CCARM3089; experiment: microbe, parasite or virus in culture; conditions: for MIC: Staphylococcus aureus, CCARM3089, 18 h, read-out: Minimal inhibitory concentration
Procedure: as §1, §2, §3

[3] = tested on: P. aeruginosa ATCC15692; experiment: microbe, parasite or virus in culture; conditions: ATCC15692, 18 h; for MIC: Pseudomonas aeruginosa, read-out: Minimal inhibitory concentration
Procedure: as §1, §2, §3

[4] = tested on: S. aureus USA300; experiment: microbe, parasite or virus in culture; conditions: for MIC: Staphylococcus aureus, USA300, 18 h, read-out: Minimal inhibitory concentration
Procedure: as §1, §2, §3

[5] = tested on: P. aeruginosa ATCC27853; experiment: microbe, parasite or virus in culture; conditions: ATCC27853, 18 h; for MIC: Pseudomonas aeruginosa, read-out: Minimal inhibitory concentration
Procedure: as §1, §2, §3

[6] = tested on: S. aureus ATCC29213; experiment: microbe, parasite or virus in culture; conditions: ATCC29213, 18 h; for MIC: Staphylococcus aureus, read-out: Minimal inhibitory concentration
Procedure: as §1, §2, §3

[7] = tested on: S. aureus CCARM3090; experiment: microbe, parasite or virus in culture; conditions: for MIC: Staphylococcus aureus, CCARM3090, 18 h, read-out: Minimal inhibitory concentration
Procedure: as §1, §2, §3

[8] = tested on: S. aureus CCARM3518; experiment: microbe, parasite or virus in culture; conditions: for MIC: Staphylococcus aureus, CCARM3518, 18 h, read-out: Minimal inhibitory concentration
Procedure: as §1, §2, §3

[9] = tested on: S. aureus MW2; experiment: microbe, parasite or virus in culture; conditions: for MIC: Staphylococcus aureus, MW2, 18 h, read-out: Minimal inhibitory concentration
Procedure: as §1, §2, §3

[10] = tested on: P. aeruginosa 4891; experiment: microbe, parasite or virus in culture; conditions: for MIC: Pseudomonas aeruginosa, 4891, 18 h, read-out: Minimal inhibitory concentration
Procedure: as §1, §2, §3

[11] = tested on: P. aeruginosa 4007; experiment: microbe, parasite or virus in culture; conditions: for MIC: Pseudomonas aeruginosa, 4007, 18 h, read-out: Minimal inhibitory concentration
Procedure: as §1, §2, §3

[12] = tested on: L. monocytogens KCTC3710; type: cell-based, Listeria monocytogenes; conditions: KCTC3710, 18 h
Procedure: as §1, §2

[13] = tested on: B. subtilis KCTC1998; type: cell-based, Bacillus subtilis; conditions: KCTC1998, 18 h
Procedure: as §1, §2

[14] = tested on: Sa. typhimurium KCTC1926; type: cell-based, Salmonella typhimurium; conditions: KCTC1926, 18 h
Procedure: as §1, §2

[15] = tested on: Sa. typhimurium CCARM8009; type: cell-based, Salmonella typhimurium; conditions: Sa. typhimurium CCARM8009, antibiotics-tolerant; 37° C., 18 hours
Procedure: as §1, §2

[16] = tested on: Sa. typhimurium CCARM8007; type: cell-based, Salmonella typhimurium; conditions: Sa. typhimurium CCARM8007, antibiotics-tolerant; 37° C., 18 hours
Procedure: as §1, §2

[17] = tested on: HaCaT and MCF-7 cells; experiment: MTT cytotoxicity; type: cell-based, human; conditions: 100 μM, 24 h, MTT, HaCaT and MCF-7 cells
Procedure: Specifically, Thiazolyl blue tetrazolium bromide (MTT, Merck KGaA) was used to determine the cytotoxicity of PEP27 and its analogs against HaCaT (human keratinocyte […], n=4 per condition) and MCF-7 (human breast adenocarcinoma, n=3 per condition) cells. The cells were cultured in Dulbecco's modified Eagle's medium (DMEM) supplemented with 10 heat-inactivated fetal bovine serum (FBS, Gibco, Grand Island, NY, USA) and 1% penicillin-streptomycin (Gibco) at a density of 2×10^4 cells/well (96-well plate). Peptides were then added at various concentrations and incubated for 24 h at 37° C., after which MTT (final concentration, 0.5 mg/mL) was added to each well and incubated for 4 h. The formazan product was solubilized in DMSO, and the absorbance at 570 nm was measured to […] cytotoxicity. Cells treated with 0.1% Triton X-100 were used as the 100% cytotoxic control sample.

[18] = tested on: red blood cells of a rat (Balb/c); conditions: 37° C., 1 hour
Procedure: In order to compare the cytotoxicity of the peptides prepared by the method of above 1, erythrocyte hemolytic activity of each of the synthesized peptides was measured.
Specifically, red blood cells of a rat (Balb/c, 6 weeks old, female) were diluted with PBS (pH 7.0) to a concentration of 8%, and PEP27, PEP27-1, PEP27-2 and PEP27-5 peptides were used for treatment of the cells at concentrations of 3.13, 6.25, 12.5, 25.01 50.0 and 100.0 μM/well, respectively, followed by reaction at 37° C. for 1 hour. Then, an amount of hemoglobin contained in the supernatant obtained by centrifugation at 1,000×g was determined by measuring the absorbance at a wavelength of 414 nm. As a control which is a standard for the degree of cell destruction, the absorbance of the obtained supernatant was measured after treatment using 1% Triton X-100 (Sigma, USA) and reaction at 37° C. for 1 hour. With reference to 100% erythrocytes hemolysis activity, hemolysis of each peptide was calculated from the measured absorbance using Equation 1 below. Erythrocyte destruction ability (%)=(Absorbance A−Absorbance B)/(Absorbance C−Absorbance B)×100 [Equation 1]
(wherein, absorbance A represents the absorbance of a reaction solution treated with each peptide measured at a wavelength of 414 nm; absorbance B represents the absorbance of a reaction solution treated with PBS measured at a wavelength of 414 nm; and absorbance C represents the absorbance of a reaction solution treated with 1% Triton X-100 measured at a wavelength of 414 nm).

[19] = tested on: E. coli ATCC27325; type: cell-based, Escherichia coli; conditions: ATCC27325, 18 h
Procedure: as §1, §2

[20] = tested on: E. coli CCARM1229; type: cell-based, Escherichia coli; conditions: E. coli CCARM1229, antibiotics-tolerant; 37° C., 18 hours
Procedure: as §1, §2

[21] = tested on: E. coli ATCC25922; type: cell-based, Escherichia coli; conditions: ATCC25922, 18 h
Procedure: as §1, §2

[22] = tested on: E. coli CCARM1238; type: cell-based, Escherichia coli; conditions: E. coli CCARM1238, antibiotics-tolerant; 37° C., 18 hours
Procedure: as §1, §2

CC(C)(O/N=C(\C(=O)N[C@@H]1C(=O)N2C(C(=O)[O-])=C(C[n+]3ccccc3)CS[C@H]12)c1csc(N)n1)C(=O)O [Ceftazidime, ceftazidime]
MIC [1]: 16 µM (≈ 8.75 µg/mL)
MIC [2]: 512 µM (≈ 280 µg/mL)
MIC [3]: 4 µM (≈ 2.19 µg/mL)
MIC [4]: 32 µM (≈ 17.5 µg/mL)
MIC [5]: 2 µM (≈ 1.09 µg/mL)
MIC [6]: 3 µM (≈ 1.64 µg/mL)
MIC [7]: 512 µM (≈ 280 µg/mL)
MIC [8]: 64 µM (≈ 35 µg/mL)
MIC [9]: 32 µM (≈ 17.5 µg/mL)
MIC [10]: 16 µM (≈ 8.75 µg/mL)
MIC [11]: 16 µM (≈ 8.75 µg/mL)

C[C@@H](O)[C@H]1C(=O)N2C(C(=O)O)=C(S[C@@H]3CN[C@H](C(=O)N(C)C)C3)[C@H](C)[C@H]12 [Meropenem, meropenem]
MIC [1]: 2 µM (≈ 0.767 µg/mL)
MIC [2]: 64 µM (≈ 24.5 µg/mL)
MIC [3]: 2 µM (≈ 0.767 µg/mL)
MIC [4]: 2 µM (≈ 0.767 µg/mL)
MIC [5]: 2 µM (≈ 0.767 µg/mL)
MIC [6]: 2 µM (≈ 0.767 µg/mL)
MIC [7]: 128 µM (≈ 49.1 µg/mL)
MIC [8]: 64 µM (≈ 24.5 µg/mL)
MIC [9]: 2 µM (≈ 0.767 µg/mL)
MIC [10]: 8 µM (≈ 3.07 µg/mL)
MIC [11]: 4 µM (≈ 1.53 µg/mL)

CSCC[C@H](N)C(=O)N[C@@H](Cc1c[nH]c2ccccc12)C(=O)N[C@@H](CCCCN)C(=O)N[C@@H](Cc1c[nH]c2ccccc12)C(=O)N[C@@H](Cc1ccccc1)C(=O)N[C@@H](Cc1c[nH]cn1)C(=O)N[C@@H](CC(N)=O)C(=O)N[C@H](C(=O)N[C@@H](CC(C)C)C(=O)N[C@@H](CO)C(=O)N[C@@H](CO)C(=O)NCC(=O)N[C@@H](CCC(N)=O)C(=O)N[C@@H](CC(C)C)C(=O)N[C@@H](CC(C)C)C(=O)N[C@@H](C)C(=O)N[C@@H](CC(=O)O)C(=O)N[C@@H](CCCCN)C(=O)N[C@@H](CCCNC(=N)N)C(=O)N1CCC[C@H]1C(=O)N[C@@H](C)C(=O)N[C@@H](CCCNC(=N)N)C(=O)N[C@@H](CC(=O)O)C(=O)N[C@@H](Cc1ccc(O)cc1)C(=O)N[C@@H](CC(N)=O)C(=O)N[C@@H](CCCNC(=N)N)C(=O)N[C@@H](CCCCN)C(N)=O)C(C)C [PEP27-1] (H-MWKWFHNVLSSGQLLADKRPARDYNRK-NH2)
Minimal inhibitory concentration [12]: 64 µM (≈ 212 µg/mL)
Minimal inhibitory concentration [13]: 32 µM (≈ 106 µg/mL)
Minimal inhibitory concentration [14]: 32 µM (≈ 106 µg/mL)
Minimal inhibitory concentration [15]: 32 µM (≈ 106 µg/mL)
Minimal inhibitory concentration [16]: 32 µM (≈ 106 µg/mL)
cell viability [17]: 41%-42%
Minimal inhibitory concentration [1]: 32 µM (≈ 106 µg/mL)
Minimal inhibitory concentration ([2]; S. aureus CCARM3089, antibiotics-tolerant, 37° C., 18 hours): 32 µM (≈ 106 µg/mL)
Minimal inhibitory concentration [3]: 32 µM (≈ 106 µg/mL)
Minimal inhibitory concentration ([4]; S. aureus USA300, antibiotics-tolerant, 37° C., 18 hours): 32 µM (≈ 106 µg/mL)
Minimal inhibitory concentration [5]: 32 µM (≈ 106 µg/mL)
Minimal inhibitory concentration [6]: 32 µM (≈ 106 µg/mL)
Minimal inhibitory concentration ([7]; S. aureus CCARM3090, antibiotics-tolerant, 37° C., 18 hours): 16 µM (≈ 53.1 µg/mL)
Minimal inhibitory concentration ([8]; S. aureus CCARM3518, antibiotics-tolerant, 37° C., 18 hours): 32 µM (≈ 106 µg/mL)
Minimal inhibitory concentration ([9]; S. aureus MW2, antibiotics-tolerant, 37° C., 18 hours): 32 µM (≈ 106 µg/mL)
Minimal inhibitory concentration ([10]; 4891, 18 h): 32 µM (≈ 106 µg/mL)
Minimal inhibitory concentration ([11]; 4007, 18 h): 32 µM (≈ 106 µg/mL)
Erythrocyte destruction ability ([18]; Peptide concentration 3.13 μM): 0%
Erythrocyte destruction ability ([18]; Peptide concentration 6.25 μM): 1.05%
Erythrocyte destruction ability ([18]; Peptide concentration 12.5 μM): 1.97%
Erythrocyte destruction ability ([18]; Peptide concentration 25 μM): 25.75%
Erythrocyte destruction ability ([18]; Peptide concentration 50 μM): 44.51%
Erythrocyte destruction ability ([18]; Peptide concentration 100 μM, 100% = 1% Triton X-100): 50.65%
Minimal inhibitory concentration [19]: 32 µM (≈ 106 µg/mL)
Minimal inhibitory concentration [20]: 32 µM (≈ 106 µg/mL)
Minimal inhibitory concentration [21]: 64 µM (≈ 212 µg/mL)
Minimal inhibitory concentration [22]: 32 µM (≈ 106 µg/mL)

CN[C@H](CC(C)C)C(=O)N[C@H]1C(=O)N[C@@H](CC(N)=O)C(=O)N[C@H]2C(=O)N[C@H]3C(=O)N[C@H](C(=O)N[C@H](C(=O)O)c4cc(O)cc(O)c4-c4cc3ccc4O)[C@H](O)c3ccc(c(Cl)c3)Oc3cc2cc(c3O[C@@H]2O[C@H](CO)[C@@H](O)[C@H](O)[C@H]2O[C@H]2C[C@](C)(N)[C@H](O)[C@H](C)O2)Oc2ccc(cc2Cl)[C@H]1O [Vancomycin, vancomycin]
MIC [1]: 0.25 µM (≈ 0.362 µg/mL)
MIC [2]: 0.25 µM (≈ 0.362 µg/mL)
MIC [3]: 512 µM (≈ 742 µg/mL)
MIC [4]: 0.25 µM (≈ 0.362 µg/mL)
MIC [5]: 256 µM (≈ 371 µg/mL)
MIC [6]: 0.25 µM (≈ 0.362 µg/mL)
MIC [7]: 0.5 µM (≈ 0.725 µg/mL)
MIC [8]: 0.25 µM (≈ 0.362 µg/mL)
MIC [9]: 0.25 µM (≈ 0.362 µg/mL)
MIC [10]: 512 µM (≈ 742 µg/mL)
MIC [11]: 512 µM (≈ 742 µg/mL)
